Measurements taken from patent publication US11357817B2, “Immunoproteasome inhibitor” (The Regents of the University of California, priority 2017, dated 2022).

Tests used:
Pf20S = Pf20S (Plasmodium falciparum, UniProt A0A5K1K7U1+Q8IJT1); test: Calculation of inhibition constants (inactivation kinetics), Pf20S; format: biochemical; settings: Pf20S
Protocol: (§1) The rate of AMC release was calculated in the presence of serial dilution of each inhibitor. The rate of product formation were calculated at 30 min intervals for 4 hours, and normalized to activity DMSO control to calculate inactivation curves. Kobs values for each inhibitor concentration were calculated from inactivation curves, and inhibition constants KI and kinact were calculated by non-linear regression of Kobs and inhibitor concentration using GraphPad Prism 6 software.

HepG2 cells = test: HepG2 cytotoxicity assay; format: cell-based; settings: Homo sapiens
Protocol: The liver-stage and HepG2 toxicity assays were performed as previously reported (35). Briefly, HepG2-A16-CD81EGFP, human hepatocarcinoma HepG2 cells stably transformed to express the tetraspanin CD81 receptor (36, 37) and thus susceptible to P. berghei infection, were cultured at 37° C. in 5% CO2 in DMEM (Life Technologies, Calif.) supplemented with 10% FBS, 0.29 mg/ml glutamine, 100 unit penicillin and 100 μg/ml streptomycin. For both the P. berghei-luciferase and HepG2 cytotoxicity assays, 3×10^3 of the HepG2-A16-CD81EGFP cells in 5 μl of assay medium (DMEM without Phenol Red (Life Technologies, Calif.), 5% FBS, and 5× Pen Strep Glutamine (Life Technologies, Calif.)) at concentration 6×10^5 cells/ml were seeded in 1536-well plates (Greiner BioOne white solid bottom custom GNF mold) 20-26 hours prior to the actual infection. 18 hours prior to infection, 50 nl of compound in DMSO (0.5% final DMSO concentration per well) were transferred with Acoustic Transfer System (ATS) (Biosero) into the assay plates. Atovaquone (12-point serial dilution starting at 10 μM) and Puromycin (12-point serial dilution starting at 10 μM) were used as positive controls for Pb. liver stage assay and HepG2 cytotoxicity respectively. 0.5% DMSO was used as negative control for the both assays.
An. stephensi mosquitoes, infected with P. berghei-luciferase, were provided by the New York University Insectary. P. berghei-luciferase sporozoites were freshly dissected from the infected A. stephensi mosquito salivary glands, filtered twice through a 20 μm nylon net filter using Steriflip Vacuum-Driven Filtration System (Millipore), counted in a hemocytometer, and then adjusted to final concentration 200 sporozoites per μl in the assay media. […] The HepG2-A16-CD81EGFP cell designated for toxicity studies were left uninfected, with 5 ul of additional assay media added to each well to maintain equal concentrations of compounds with P. berghei-luciferase infected plates. After incubation at 37° C. for 48 hours the exoerythrocytic growth and HepG2-A16-CD81EGFP cell viability were quantified by a bioluminescence measurement.
The HepG2 cytotoxicity was assessed by removing the media through an inverted spin of the plates at 150 g for 30 s and addition of 2 μL of CellTiterGlo reagent (Promega diluted 1:2 with deionized water) per well using the MicroFlo liquid handler (BioTek). Immediately after addition of the luminescence reagent, the plates were vortexed for 10 s and read with an EnVision Multilabel reader (PerkinElmer). IC50 values were obtained as above.

c20S = target: T1, c20S (Homo sapiens, UniProt P20618+P28074); test: Calculation of inhibition constants (inactivation kinetics), c20S; format: biochemical; settings: for Ki: c20S
T1 construct: purchased Boston Biochem
Protocol: as §1

P. falciparum Dd2 = P. falciparum Dd2 asexual blood stage SYBR Green I compound sensitivity assay; format: cell-based, Plasmodium falciparum; settings: for IC50: Plasmodium falciparum, DD2, 72 h, asexual blood stage, 72 hour SYBR green assay; for Selectivity Index: P. falciparum activity versus HepG2 activity
Protocol: P. falciparum Dd2 strain parasites were cultured under standard conditions (31), using RPMI media supplemented with 0.05 mg/ml gentamycin, 0.014 mg/mL hypoxanthine (prepared fresh), 38.4 mM HEPES, 0.2% Sodium Bicarbonate, 3.4 mM Sodium Hydroxide, 0.05% O+ Human Serum (Denatured at […] for 40 min and From Interstate Blood Bank, Memphis, Tenn.) and 0.0025% Albumax). Human O+ whole blood was obtained from TSRI blood bank (La Jolla, Calif.). Leukocyte-free erythrocytes are stored at 50% hematocrit in RPMI-1640 screening media (as above, but without O+ human serum and with 2× albumax concentration) at 4° C. for one to three weeks before experimental use. Cultures were monitored every one to two days via Giemsa-stained thin smears.
(§2) Compound susceptibility was measured using the malaria SYBR Green I-based fluorescence assay (32). Asynchronous P. falciparum parasites (Dd2 strain) were cultured in standard conditions before being plated for the assays. Each compound was tested over 72 hours in technical duplicates on a twelve-point concentration curve prepared by three-fold dilution from 6.7 μM to 0.11 nM. At least three independent experiments were carried out for IC50 determination. Artemisinin and chloroquine were used as controls. IC50 values were obtained using normalized fluorescence intensity from SYBR green I and analyzed via non-linear variable slope four-parameter regression curve-fitting model in Prism 6 (GraphPad Software Inc).

Dd2 parasites = test: Artemisinin synergy, 72 hour SYBR green assay with co-treatment; format: cell-based, Plasmodium falciparum
Protocol: as §2

[1] = system: 20S Plasmodium proteasome (Pf20S) β5 subunit; test: Proteasome activity assay, Pf20S β5 (suc-LLVY-AMC); format: biochemical, Plasmodium falciparum; settings: 150 nM inhibitor
Protocol: (§3) Asynchronous P. falciparum cultures were grown up to 4-5% parasitemia, in 300 mL of RPMI media at 5.0% hematocrit. Cultures were then transferred to 50 mL conical tubes, pelleted via centrifugation at 800 g for 5 min, and washed once with 1×PBS and pelleted again as above. The PBS was removed and lysis buffer (0.15% saponin in PBS) was added on ice in 10 pellet volumes. Upon lysis of red blood cells, indicated by a clear red supernatant, the lysed cultures were centrifuged at 3200×g for 12 minutes at 4° C. The supernatant was removed by aspiration and the cells were washed twice using chilled PBS in microcentrifuge tubes. The cell pellets were then incubated on ice for 1 hour with occasional vortexing in a buffer consisting of 20 mM Tris-HCl pH 7.5, 5 mM MgCl2, 1 mM DTT, 100 μM E-64 and 1 mM AEBSF. This sample was then subjected to 3 rounds of freezing (−80° C.) and thawing (37° C.) and centrifugation at 6000×g for 10 min. The supernatant containing soluble P. falciparum protein was quantified by the BCA method (Pierce).
P. falciparum proteasome was enriched by two-chromatographic steps reported previously (10). In brief, 10 mg of P. falciparum protein was concentrated to 1 mL using a 100 kDa centrifugal filter unit (Amicon) and loaded onto a 5 mL anion exchange HiTrap DEAE FF column (GE Healthcare). […] The AMC fluorophore release was monitored at Ex 340/Em 465 nm at 24° C. using a Synergy HTX multi-mode reader (Biotek). […] Proteins were eluted using 20 mM Tris-HCl pH 7.5, 100 mM NaCl, 10% glycerol and 1 mL fractions were collected, evaluated for protease activity and pooled.
To estimate the concentration of Pf20S in the final pooled sample, protein was denatured and loaded into a 4-12% Bis-Tris Plus gel (Thermo Fisher Scientific) beside 60 to 100 ng of human constitutive proteasome (Boston Biochem). […] For inhibition assays, inhibitor and substrate were added simultaneously to the enzyme and the rate of AMC release was determined from 60 to 120 minutes and compared to a DMSO control.

[2] = system: 20S Plasmodium proteasome (Pf20S) β1 subunit; test: Proteasome activity assay, Pf20S β1 (z-LLE-AMC); format: biochemical, Plasmodium falciparum; settings: 150 nM inhibitor
Protocol: as §3, with “Cultures were then transferred to 50 mL conical tubes, pelleted via centrifugation at 800 g for 5 min, and washed once with 1×PBS and pelleted again as above.” left out
(§4) P. falciparum proteasome was enriched by two-chromatographic steps reported previously (10). […] The AMC fluorophore release was monitored at Ex 340/Em 465 nm at 24° C. using a Synergy HTX multi-mode reader (Biotek). […] Proteins were eluted using 20 mM Tris-HCl pH 7.5, 100 mM NaCl, 10% glycerol and 1 mL fractions were collected, evaluated for protease activity and pooled. […]

[3] = system: 20S Plasmodium proteasome (Pf20S) β2 subunit; test: Proteasome activity assay, Pf20S β2 (z-LRR-AMC); format: biochemical; settings: 150 nM inhibitor
Protocol: as §3, with “Cultures were then transferred to 50 mL conical tubes, pelleted via centrifugation at 800 g for 5 min, and washed once with 1×PBS and pelleted again as above.” left out
as §4

[4] = system: ABC16-Monster yeast cells; test: microbe, parasite or virus in culture; format: cell-based, S. cerevisiae; settings: Saccharomyces cerevisiae
Protocol: ABC16-Monster yeast cells (15) were inoculated into 5 ml of liquid YPD media and grown to saturation (OD600>1.0) overnight at 200 RPM in a shaking incubator at 30° C. Cultures were diluted to OD600 0.005 to log phase. 100 μl of yeast cells were added to a 96-well plate and incubated with compound starting with a concentration of 150 μM, followed by 1:2 serial dilutions. An initial reading of OD600 (t=0 hrs) was recorded using a Synergy HT spectrophotometer, and cells were grown for a period of 18 hours at 30° C. After incubation, plates were read at OD600. Cells grown in the absence of compound were used as a negative control. Percent growth was calculated using the formula Ab600treated/Ab600control×100
IC50 values were determined by first subtracting the OD600 values at t=0 from those of the final reading and then using Graphpad Prism to calculate nonlinear regression on log(inhibitor) vs. response with variable slope (four parameters).
Each selection was cultured under vigorous shaking until the culture reached saturation. […] Single colonies were isolated, and IC50 assays were performed to determine the degree of evolved resistance vs. that of the parental strain.

Pf20S, sequence (A0A5K1K7U1 entry or part of it): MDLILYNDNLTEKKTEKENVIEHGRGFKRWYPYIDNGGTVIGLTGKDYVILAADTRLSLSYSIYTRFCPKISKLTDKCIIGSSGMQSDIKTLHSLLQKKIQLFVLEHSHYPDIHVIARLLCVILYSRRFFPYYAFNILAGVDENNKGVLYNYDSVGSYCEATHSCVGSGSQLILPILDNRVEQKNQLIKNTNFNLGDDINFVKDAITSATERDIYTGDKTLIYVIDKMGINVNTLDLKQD
Pf20S, sequence (Q8IJT1 entry or part of it): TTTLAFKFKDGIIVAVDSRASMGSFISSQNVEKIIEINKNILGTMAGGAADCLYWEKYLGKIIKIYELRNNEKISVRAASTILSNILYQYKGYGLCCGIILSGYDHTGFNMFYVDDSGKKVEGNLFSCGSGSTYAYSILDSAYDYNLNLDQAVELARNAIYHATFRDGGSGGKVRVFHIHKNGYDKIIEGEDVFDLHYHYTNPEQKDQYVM

## CCCCCC(=O)N[C@H](C(=O)N[C@@H](CCCC)C(=O)N[C@@H](CC(C)C)C(=O)[C@@]1(C)CO1)C(C)C [Analog 1, (S)-2-((S)-2-hexanamido-3-methylbutanamido)-N—((S)-4-methyl-1-((R)-2-methyloxiran-2-yl)-1-oxopentan-2-yl)hexanamide]
Pf20S
  Ki: 2290 nM
HepG2 cells
  IC50: 134 ± 86.7 nM
c20S
  Ki: 3740 nM
c20S; kinact/Ki, analog 1 versus carmaphycin B
  loss in potency to c20S: 3 fold
P. falciparum Dd2
  IC50: 4.11 ± 0.077 nM

## CCCCCC(=O)N[C@H](C(=O)N[C@@H](CCS(C)(=O)=O)C(=O)N[C@@H](CC(C)C)C(=O)[C@@]1(C)CO1)C(C)C [Carmaphycin B]
Dd2 parasites; co-treatment with ART and 0.5 nM of the compound
  sensitization to ART: 2 fold
Dd2 parasites; co-treatment with ART and 1 nM of the compound
  sensitization to ART: 3 fold
[1]
  Pf20S β5 activity reduced: 45%
Pf20S
  Ki: 223 nM
c20S
  Ki: 375 nM
[2]
  Pf20S β1 activity reduced: 16%
[3]
  Pf20S β2 activity reduced: 29%
[4]; GM (parental ABC16-Monster strain)
  IC50: 24300 nM
[4]; resistant Lineage 1
  IC50: > 150000 nM
[4]; resistant Lineage 2
  IC50: 52700 nM
[4]; resistant Lineage 3
  IC50: > 100000 nM

## C[C@@H]1CC[C@H]2[C@@H](C)C(=O)O[C@@H]3O[C@@]4(C)CC[C@@H]1[C@]32OO4 [Artemisinin, artemisinin]
Dd2 parasites; Plasmodium falciparum, DD2, wild-type parasites treated with ART alone
  IC50: 19.7 to 23.3 nM

## CCCCCC(=O)N[C@@H](Cc1ccc(N)cc1)C(=O)N[C@@H](CCCC)C(=O)N[C@@H](Cc1ccccc1)C(=O)[C@@]1(C)CO1 [Analog 9, (S)-2-((S)-3-(4-aminophenyl)-2-hexanamidopropanamido)-N—((S)-1-((R)-2-methyloxiran-2-yl)-1-oxo-3-phenylpropan-2-yl)hexanamide]
HepG2 cells
  IC50: 3410 ± 2310 nM
P. falciparum Dd2
  Selectivity Index: 41.69
  IC50: 81.8 ± 14 nM

## CCCCCC(=O)NC(Cc1ccc(N)cc1)C(=O)N[C@@H](Cc1ccc(N)cc1)C(=O)N[C@@H](CC(C)C)C(=O)[C@@]1(C)CO1 (stereo in doubt) [Analog 12, N—((R)-3-(4-aminophenyl)-1-(((S)-3-(4-aminophenyl)-1-(((S)-4-methyl-1-((R)-2-methyloxiran-2-yl)-1-oxopentan-2-yl)amino)-1-oxopropan-2-yl)amino)-1-oxopropan-2-yl)hexanamide]
HepG2 cells
  IC50: 0.91 ± 0.25 nM
P. falciparum Dd2
  Selectivity Index: 0.02
  IC50: 59.6 ± 15.4 nM
